# Experiments:
# [1] = tested on: methylated and unmethylated GBM cells; test: In vitro cytotoxicity of GBM cells, BZD-1 and TMZ single or combined; assay type: cell-based
# [2] = tested on: unmethylated GBM lines BT142-GFP and G43; test: Spheroid assay; assay type: cell-based; conditions: BZD-1 + TMZ; BT142-GFP and G43 spheroids; qualitative
# Protocol: Spheroid assays were carried out using two unmethylated GBM lines: BT142-GFP (FIG. 3A) and G43 (FIG. 3B) to qualitatively assess the effect of BZD-1+TMZ.
# [3] = Stability of co-solvent formulation at room temperature; assay type: physicochemical
# [4] = tested on: H1792 human lung cancer cells; test: MTS proliferation assay, BZD-1 alone; assay type: cell-based
# Protocol: 10^3 H1792 cells/well in 100 uL of medium were plated in a 96 well plate and allowed to attach for 24 hrs. The next day, BZD-1 (stock, 40 mM in DMSO) was first diluted to 40 μM in fresh cell culture medium, then serially 2-fold diluted. Medium on cells was then carefully aspirated and replaced with 100 μL of vehicle (DMSO)/drug containing medium, with 5 replicated for each control/drug dilution. Cells were returned to the incubator for 48 hours.
# (§1) For MTS Assay, medium was carefully aspirated and replaced with 100 μL of phenol red free medium. Then 20 μL of MTS reagent (Cell Titer 96 Aqueous Non-Radioactive Cell Proliferation Assay reagent—Promega) was added to each well. The plate was returned to incubator for 1 hour, then OD acquired at 490 nm in a plate reader. OD values were then analyzed, and the graph obtained using GraphPad Prism.
# [5] = tested on: H1792 human lung cancer cells; test: MTS proliferation assay, DTX + 2.5 μM BZD-1; assay type: cell-based
# Protocol: 10^3 H1792 cells/well in 100 μL of medium were plated in a 96 well plate and allowed to attach for 24 hrs. The next day, large volume of fresh medium containing 2.5 μM BZD-1 was prepared from 40 mM BZD-1 stock in DMSO. For Docetaxel (DTX) dilutions, either fresh medium was used for DTX only or 2.5 μM BZD-1 containing medium was used for DTX+2.5 μM BZD-1 treatment. Medium on cells was then aspirated and replaced by 100 μL of vehicle (DMSO)/drug containing media, with 5 replicated for each control/drug dilution. Cells were returned to the incubator for 48 hours.
# as §1, with “was” for “was carefully”, “by” for “with”
# 10^3 H1792 cells/well in 100 μL of medium were plated in a 96 well plate and allowed to attach for 24 hrs. […]
# For MTS Assay, medium was aspirated and replaced with 100 μL of phenol red free medium. […] The plate was returned to the incubator for 1 hour, then OD acquired at 490 nm in a plate reader. OD values were then analyzed, and the graph obtained using GraphPad Prism.
# H1792 cells = test: Clonogenic assay, BZD-1 with or without 0.5 nM DTX; assay type: cell-based, human; conditions: BZD-1 + 0.5 nM DTX, 12 days
# Protocol: 300 H1792 cells/well in 3 mL of medium were plated in a 6 well plate and allowed to attach for 36 hrs. A large volume of fresh medium containing 0.5 nM Docetaxel (DTX) was prepared from 1 mM stock in DMSO. For BZD-1 dilution, either fresh medium or +0.5 nM DTX containing medium was used. Medium on cells was then aspirated and replaced by 3 mL of vehicle (DMSO)/Drug containing media in triplicate for each control/drug dilution. Cells were returned to the incubator for 12 days. For staining, medium was aspirated, cells were washed 1× with PBS and fixed 15 minutes with methanol at room temperature. Methanol was then removed, and crystal violet staining solution added to cells and incubated 30 minutes at room temperature. Plates were then washed extensively with tap water, dried and pictured.
# H1792 xenograft tumor = test: H1792 flank xenograft dose response; assay type: in vivo, NOD-SCID mice
# Protocol: NOD-SCID mice (3 mice/group) were implanted with 10^6 H1792 cells s.c. in both flanks. When the tumors were palpable (day 11 post implantation), treatment was started and consisted of daily i.p. injections of vehicle (DMSO) or BZD-1 drug dissolved in DMSO for 7 days. Tumor size was measured every other day using a caliper. Tumor volume was calculated as follows: […]
# At day 46 post tumor implantation, mice were euthanized following institutional IACUC procedures. Tumors from both flanks were resected, weighed, and average tumor mass for each group was calculated, plotted, and photographed.
# [6] = Pharmacokinetics, brain penetration
# [7] = Metabolic stability in human liver microsomes; conditions: within 1 hr
# rats = test: Visible adverse effects after single dose i.p.; conditions: 12 hrs after single dose i.p., co-solvent formulation
# [8] = Solubility in co-solvent injectable formulation; conditions: co-solvent based injectable formulation, aqueous with cosolvent or surfactant or cyclodextrin
# [9] = daily i.p. for 7 days, NOD-SCID mice
structure (smiles),measurement,setting,value
"C#Cc1ccc2c(c1)C(c1ccccc1F)=NCC(=O)N2C [BZD-1, 7-ethynyl-5-(2-fluorophenyl)-1-methyl-1,3-dihydro-2H-benzo[e][1,4]diazepin-2-one]",Effect of combined therapy on TMZ resistance,"[1]; BZD-1 + TMZ, unmethylated GBM cell lines",overcomes TMZ resistance
same,Synergy of BZD-1 and TMZ (Chou-Talay Combination Index Equation),"[1]; BZD-1 in combination with TMZ, GBM cells",act synergistically
same,Spheroid response to combination therapy,[2],significant disaggregation
same,Stable at room temperature,[3],up to 6 months
same,Proliferation of H1792 cells,"[4]; 48 hours, in vitro",inhibits proliferation
same,IC50,"[4]; Homo sapiens, NCI-H1792, 48 hours",4.5 to 6 µM
same,Effect on docetaxel cytotoxicity,"[5]; 2.5 μM BZD-1 + DTX, 48 hours, MTS",potentiates the cytotoxic effect of docetaxel
same,Combination Index (CI),"[5]; BZD-1 combined with DTX, H1792 cell growth in vitro",0.6
same,"Clonogenic growth, combination with docetaxel",H1792 cells,work synergistically
same,Most effective dose,H1792 xenograft tumor; [9],2.5 mg/kg
same,Tumor volume compared to vehicle,H1792 xenograft tumor; [9],reduced tumor volume
same,Sedation in the animal model,H1792 xenograft tumor; doses higher than 2.5 mg/kg,sedating
same,Time of penetration into the brain,[6]; brain,≤ 5 min
same,Accumulation in brain extracellular fluid,[6]; brain extracellular fluid,161.3 ng/mL
same,Breakdown products in human liver microsomes,[7],no breakdown products were found
same,Visible adverse effects,rats,no visible adverse effects
same,solubility,[8],10000 µg/mL

# From patent US20240293425A1, “BZD-1 AS A CHEMO[…] CANCER” (University of Cincinnati, priority 2021, published 2024)
